Laboratory results from patent US10004777B2, “Bioactive compositions from Theacea plants and processes for their production and use” (ISP Investments Inc., priority 2004, dated 2018).

Experiment: Superoxide scavenging activity (xanthine oxidase / cytochrome c reduction)
Format: biochemical
Source text: Method 7: Method for Determination of Superoxide Scavenging Activity. The enzymatic system, which uses xanthine oxidase (a purified enzyme preparation produced by “Sigma”), was used to generate superoxide anions in high yield and in a controlled fashion. The conversion of xanthine to […] by this enzyme generates amounts of superoxide anions and reduction of ferricytochrome c to ferrocytochrome c was used as a sensitive measure of superoxide levels. The measurements of ferrocytochrome c level (550 nm), when tested bioactive compositions were added to the reaction system, allow for determination of their superoxide scavenging activity. The final concentrations per well were for cytochrome c 75 μM, xanthine 425 μm/L, and xanthine oxidase 10 mU/ml.

## O=C(/C=C/c1ccc(O)c(O)c1)O[C@H](Cc1ccc(O)c(O)c1)C(=O)O [rosmarinic acid]
  ICR50 of positive control: 26.5 µg/mL
